Assay results reported in patent US3971757A, “3-Alkyl-4-oxo-imidazolidines and their 1-oxyls” (Ciba-Geigy Corporation, priority 1973, dated 1976).

What was measured:
[1] = Compatibility with polyethylene sheets (efflorescence at room temperature); type: physicochemical; details: 1 mm sheets; for Compatibility 0.1% (number of days over which no efflorescence phenomena are detectable): 0.1 part in 100 parts polyethylene; for Compatibility 0.3% (number of days over which no efflorescence phenomena are detectable): 0.3 part in 100 parts polyethylene
Method: (§1) 100 Parts of polyethylene having a density of 0.917 are homogeneously mixed in a Brabender plastograph with 0.1 and 0.3 parts, respectively, of a light-stabilising agent of formula I at 180°C for 10 minutes. The resulting mixture is moulded in a platen press at 170°C to give 1 mm thick sheets, and these are then examined visually for undissolved constituents. The sheets are suspended at room temperature and periodically examined for efflorescence phenomena.
*Compatibility: number of days over which no efflorescence phenomena are […]

[2] = Solubility in polyethylene sheets (visual examination for undissolved constituents); type: physicochemical; details: 1 mm sheets; for Solubility 0.1%: 0.1 part in 100 parts polyethylene (density 0.917); for Solubility 0.3%: 0.3 part in 100 parts polyethylene (density 0.917)
Method: as §1

[3] = Light stabilization of polystyrene sheets, yellowing factor after exposure in Xenotest 150; details: exposed 2,000 hours in Xenotest 150; 0.25 part per 100 parts polystyrene, 2 mm sheets; no light stabilizer: 20.0
Method: 100 parts of polystyrene granules are mixed dry with 0.25 part of a light stabilizer from Table 4 below and the mixture is regranulated in an extruder and subsequently moulded on an injection moulding machine to give 2 mm thick sheets. The sheets obtained are exposed for 2,000 hours in the Xenotest 150 apparatus and their yellowing is determined as follows, from the yellowing factor: [formula] wherein Δ T denotes the loss in transmission at wavelengths 420 and 680 nm respectively, which has occurred during exposure, and T(560) denotes the transmission value in percent of the unexposed sample at 560 nm.

[4] = Light stabilization of polypropylene film, carbonyl (CO) extinction on exposure in Xenotest 150; details: 0.25 part per 100 parts polypropylene, 0.1 mm film, with 0.2 part antioxidant, no light stabilizer: 0.300 at 1,000 hours
Method: 100 parts of polypropylene powder (Moplen, fibre grade, from Messrs. Montedison) are homogenised with 0.2 part of β-(3,5-di-tert-butyl-4-hydroxyphenyl)-propionic acid octadecyl ester as the antioxidant and 0.25 part of a light stabilizer from Table 2 below, for 10 minutes in a Brabender plastograph at 200°C. The mass thus obtained is taken from the kneader as rapidly as possible and is pressed in a toggle press to give 2 - 3 mm thick sheets. A part of the pressed blank obtained is cut out and pressed between two high gloss hard aluminium foils for 6 minutes at 260°C and 12 tons pressure, using a manual hydraulic laboratory press, to give an 0.5 mm thick film which is immediately chilled in cold water. The 0.1 mm thick test film is produced from this 0.5 mm film under exactly the same conditions. Pieces of 60 × 44 mm are now punched from the 0.1 mm thick film and exposed in the Xenotest 150. At regular intervals of time, these test specimens are taken from the light exposure apparatus and examined for their carbonyl content in an IR-spectrophotometer. The increase in the carbonyl extinction during exposure to light is a measure of the photo-oxidative degradation of the polymer [see L. Balaban et al., J. Polymer Sci. Part C, 22, 1059-1071 (1969); J. F. Heacock, J. Polymer Sci. Part A-1, 22, 2921-34 (1969); D. J. Carlsson and DM. Wiles, Macromolecules 2,587-606 (1969)] and is, according to experience, associated with a deterioration of the mechanical properties of the polymer. Thus, for example, the film stabilised with antioxidant only is completely brittle when it reaches a carbonyl extinction of approx. 0.300. The protective action of the light stabilizers according to the invention can be seen from the following Table 3: […]

SMILES | Compatibility 0.1% (number of days over which no efflorescence phenomena are detectable) [1] [days] | Compatibility 0.3% (number of days over which no efflorescence phenomena are detectable) [1] [days] | Solubility 0.1% [2] | Solubility 0.3% [2] | Y.F. (yellowing factor) [3] | CO extinction (5.85 μ) ([4]; exposure time 6,000 hours) | CO extinction (5.85 μ) ([4]; exposure time 5,000 hours)
CCCCCCCCN1C(=O)C2(CCCCC2)NC12CCCCC2 [III] | 200 | 200 | dissolv. | dissolv. |  |  | 
O=C1N(Cc2ccccc2)C2(CCCCC2)NC12CCCCC2 [I] |  |  |  |  | 4.5 | 0.010 | 
O=C1N(CCCCN2C(=O)C3(CCCCC3)NC23CCCCC3)C2(CCCCC2)NC12CCCCC2 [VI] |  |  |  |  | 5.5 | 0.010 | 
O=C(CN1C(=O)C2(CCCCC2)NC12CCCCC2)OCC(COC(=O)CN1C(=O)C2(CCCCC2)NC12CCCCC2)(COC(=O)CN1C(=O)C2(CCCCC2)NC12CCCCC2)COC(=O)CN1C(=O)C2(CCCCC2)NC12CCCCC2 [XI] |  |  |  |  |  |  | 0.010

Second part, led by results:

Compatibility 0.1% (number of days over which no efflorescence phenomena are detectable) [1] [days] | Compatibility 0.3% (number of days over which no efflorescence phenomena are detectable) [1] [days] | Solubility 0.1% [2] | Solubility 0.3% [2] | SMILES | Y.F. (yellowing factor) [3] | CO extinction (5.85 μ) ([4]; exposure time 6,000 hours) | CO extinction (5.85 μ) ([4]; exposure time 5,000 hours)
200 | 200 | dissolv. | dissolv. | C=CCN1C(=O)C2(CCCCC2)NC12CCCCC2 [II] |  |  | 
200 | 200 | dissolv. | dissolv. | CCCCCCCCCCCCCCCCCCN1C(=O)C2(CCCCC2)NC12CCCCC2 [IV] |  |  | 
200 | 200 | dissolv. | dissolv. | CCCCCCCCOC(=O)CN1C(=O)C2(CCCCC2)NC12CCCCC2 [VIII] |  |  | 
